`Cn1nnnc1C(C=CC=O)=C(c1ccc(F)cc1)c1ccc(F)cc1` came in with a melting point of 156 to 158 °C.

On to `CN(CCCCOc1ccc(C=C2SC(=O)NC2=O)cc1)c1nc2ccccc2o1`, for which the melting point turned out to be 168 °C.

The molecule `Cc1nc(-c2ccc(C(F)(F)F)cc2)sc1C(=O)NCc1ccc(OC(C)(C)C(=O)O)cc1` registered a melting point of 130 to 131 °C.

For `CC(C)c1ccc(S(=O)(=O)c2ccccc2)cc1S(=O)(=O)NC1CCN(C(=O)c2cccc(F)c2)CC1`, the melting point lay in the range of 215 to 218 °C.

Molecule `COc1cc(OC)c(C(=O)/C=C/C(=O)O)c(OC)c1` displayed a melting point of 151 to 153 °C.

Molecule `COC1(C)CC(NC(=O)C(F)(F)F)C(O)(NC(=O)C(F)(F)F)C(C)O1` (stereo not given) yielded a melting point of 165 to 166 °C.

`Cc1nc2ccc(Cn3ccnc3)cc2nc1Cl` yielded a melting point of 116 °C.

Regarding `CS(=O)(=O)c1ccc(-c2c(-c3ccc(F)cc3)c(=O)n3n2Cc2c(Cl)cccc2-3)cc1`, the melting point is 237 to 240 °C.

In turn, `CCCCn1ccc(-c2ccc3c(c2)OCCN3C2CCOCC2)c(Cl)c1=O` gave a melting point of 141 °C.

As to `CCc1nc2nccc(-c3cccnc3)n2n1`, the melting point was in the range of 147 to 149 °C.

As to `Cc1nc2c(N)nc3ccc(OCc4ccccc4)cc3c2n1CCCCNC(=O)N1CCOCC1`, the melting point is 178 to 180 °C.

`NS(=O)(=O)c1ccc(-c2cnn(Cc3c(F)cc(F)cc3F)c(=O)c2-c2ccc(F)cc2)cc1` gave a melting point of 201 to 203 °C.

Consider `O=C(O)c1ccc(OCCOc2ccccc2)cc1`, for which the melting point lay in the range of 198 to 199 °C.

`O=C1OC(O)c2cccc(O)c21` (stereo not given) returned a melting point of 124 to 126 °C.

The molecule `COCOc1ccc(C=CC(=O)c2c(OCOC)cc(OCOC)c(CC=C(C)C)c2O)cc1OC` came in with a melting point of 62.5 to 63.5 °C.

On to `O=C(O)CNC(=O)c1sc(Nc2ccccc2)c2c1CCc1cnoc1-2`, for which the melting point is 193 to 194 °C.

`O=C(O)c1ccc(OCCCO/N=C/c2ccc(C(F)(F)F)cc2)cc1NC(=O)c1ccccc1C(F)(F)F` returned a melting point of 147 to 148 °C.

Molecule `CC(=Cc1ccccc1)c1ccc2c(c1)SCC(C)(C)CS2` showed a melting point of 45 to 48 °C.

Take `CCOC(=O)Nc1ncc(-c2nc3ccccc3c(=O)n2-c2cccc(OC)c2)s1`: the melting point is 235 to 236 °C.

As to `CN1CCN(c2cccc3ccc(OC(=O)c4ccc(Cl)cc4)cc23)CC1`, the melting point was 110 to 111 °C.

In turn, `CC1Cc2nc(-c3ccccc3)[nH]c(=O)c2CC1S(=O)(=O)c1ccccc1` (stereo not given) showed a melting point of 247 °C.

As for `CC(C)(C)C(=O)CC(=O)c1cccc(C(=O)CC(=O)C(C)(C)C)c1`, the melting point was 106 to 108 °C.

Molecule `O=C1NC(=O)c2ccc(-c3ccc(CN4CCCCC4)cc3)cc2C1=CNc1ccc(CN2CCCCC2)cc1` returned a melting point of 159 to 160 °C.

Take `COc1ccc(Cl)cc1-n1c(-c2ccc(C(F)(F)F)cc2)n[nH]c1=S`: the melting point fell in the range of 275 to 280 °C.

Consider `COc1ccc2c3c(c(=O)oc2c1)CN(CC(C)=O)CC3`, for which the melting point lay within 123 to 125 °C.

With `COc1cc(C)nc(NC(=O)NS(=O)(=O)c2ccccc2C(CF)OC(C)=O)n1` (stereo not given), the melting point was in the range of 198 to 200 °C.

Molecule `CCCS(=O)(=O)NCC(O)(Cn1cncn1)c1ccc(Cl)cc1Cl` (stereo not given) returned a melting point of 128 to 129 °C.

`Cn1cc(-c2ccc(Oc3ccc(F)cc3F)cc2)nc1C(N)=O` came in with a melting point of 183 to 187 °C.

Turning to `Cc1cccc(C2(C)OC(C)C(C)O2)c1NC(=O)CCl` (stereo not given), the melting point is 55 to 57 °C.

`CCOC(=O)C(=O)C1C(=O)c2cccc3c2C1CCC3` (stereo not given) came in with a melting point of 92 to 94 °C.

`Cc1ccc(-c2ccc(CN3CCN(c4ccccc4)CC3)o2)cc1C` came in with a melting point of 110 °C.

As to `CC1(C)CN(c2ncc(C(=O)N(CC3CC3)c3cc(C(F)(F)F)ccc3F)c(N)n2)C(=O)N1`, the melting point was 188 to 189 °C.

In the case of `Cc1ccc(-c2nc3cc([N+](=O)[O-])ccc3o2)s1`, the melting point fell in the range of 163 to 165 °C.

For `CC(C)NC(=O)c1cccc(-c2ccnc3c(C(=O)c4cccs4)cnn23)c1`, the melting point lay in the range of 218 to 220 °C.

For `CC(=O)c1ccc2ccn(S(=O)(=O)c3ccccc3)c2c1`, the melting point fell in the range of 160 to 163 °C.

`O=C(O)C(Cc1ccccc1)C(=O)NOCc1ccccc1` (stereo not given) came in with a melting point of 147 °C.

In the case of `COc1cc(Nc2c(C#N)cnc3cc(C#CCN(C)C)sc23)c(Cl)cc1Cl`, the melting point lay within 164 to 166 °C.

Consider `CC(=O)c1ccc2c(c1)C(C)(C)C(O)CC2(C)C` (stereo not given), for which the melting point lay within 121 to 124 °C.

For the molecule `CCOC(=O)c1cc2c3n(ccc-2n1)CC=N3`, the melting point was in the range of 154 to 156 °C.

`COc1cc(C(O)(C(F)(F)F)C(F)(F)F)cc(Br)c1NS(C)(=O)=O` came in with a melting point of 38 to 41 °C.

Consider `CCCCCC(C)N(Cc1ccc(C(C)(C)C)cc1)C(Nc1ccc(OC)cc1OC)=C1C(=O)COC1=O` (stereo not given), for which the melting point lay in the range of 115 to 117 °C.

For the molecule `Nc1cccc(Cl)c1-c1nc(-c2ccncc2)c(-c2ccc(Cl)cc2)[nH]1`, the melting point lay within 220 to 222 °C.

On to `N=C(N)c1nc2c(s1)CCc1c-2sc2ncnn12`, for which the melting point was more than 300 °C.

In the case of `CCCC(=O)c1cnc2c(C(O)CN3CCOCC3)cccc2c1Nc1ccccc1C` (stereo not given), the melting point lay in the range of 135 to 137 °C.

For the molecule `O=C(Nc1cc2ncc(CN3CCCC3)cc2cc1F)c1ccc(-c2ccc(F)cc2)cc1F`, the melting point fell in the range of 200 to 202 °C.

In turn, `CS(=O)(=O)OCCCC1Oc2cc3c(cc2NC1=O)CCCC3` (stereo not given) came in with a melting point of 153 to 154 °C.

`Clc1ccc(-c2cc(C3CCN(Cc4cccc(Cl)c4)CC3)n[nH]2)cc1` showed a melting point of 134 to 136 °C.

`CCOC(=O)C(C)(C)c1cn2nc(NCCCN3CCC(NC(c4ccccc4)c4ccccc4)CC3)ccc2n1`: the melting point fell in the range of 115 to 117 °C.

As to `Cn1nc(C(F)(F)F)cc1Oc1cccc(-c2nc(C(F)(F)C(F)(F)F)no2)n1`, the melting point lay within 109 to 110 °C.

Molecule `O=C(Nc1cccc(C(F)(F)F)c1)c1ccccc1SSc1ccccc1C(=O)Nc1cccc(C(F)(F)F)c1` yielded a melting point of 167 to 168 °C.

Turning to `CCOC(=O)c1c(-c2cccc(F)c2)c(C#N)n2c1CN(C(=O)OC(C)(C)C)CC2`, the melting point lay in the range of 129 to 131 °C.

Consider `COc1ccc(-n2nc(CCC(=O)O)cc2-c2ccc(Cl)cc2)cc1`, for which the melting point lay in the range of 126 to 128 °C.

The molecule `O=C(O)c1cccc(Nc2ccc(-c3ccoc3)cc2[N+](=O)[O-])c1` displayed a melting point of 203 to 205 °C.

With `Cc1cc2c(cc1Cl)N(C(=O)Nc1ccc(C)c(-c3cccnc3)c1)CC2`, the melting point lay in the range of 202 to 203 °C.

For the molecule `CCNC(=O)c1ccc(-c2ccc3c(c2)C(Nc2ccc(Cl)cc2)CC(C)N3C(C)=O)cc1` (stereo not given), the melting point is 134 °C.

Take `CCOC(=O)c1cn(C2CC2)c2c(OC(F)F)c(Br)ccc2c1=O`: the melting point came to 253 °C.

In turn, `O=c1[nH]c(=O)n(C2CC(F)C(CO)O2)cc1C(Cl)=CI` (stereo not given) showed a melting point of 87 °C.

For the molecule `Cc1ccc(NS(=O)(=O)c2ccccc2)c(C(=O)O)c1`, the melting point was 197 to 198 °C.

Consider `CC(=O)c1ccc(N2CCN(CCC3CN(C)C(=O)O3)CC2)cc1` (stereo not given), for which the melting point lay in the range of 142 to 145 °C.

`CC(=O)Nc1c(C#N)cnn1-c1ccc(C)cc1Cl` gave a melting point of 146 to 147 °C.

Regarding `CCCn1c(=O)c2[nH]c(C3CCCS3)nc2n(CCC)c1=O` (stereo not given), the melting point lay in the range of 224 to 226 °C.

Molecule `C#CCOc1cc(-c2ncnc(C)c2C)c(F)cc1Cl` registered a melting point of 131 to 133 °C.

For `COc1ccc(N2CCN(c3c(C)c(C)c4c(c3C)C(c3ccc(F)cc3)C(C)(C)O4)CC2)cc1` (stereo not given), the melting point is 139 to 141 °C.

For the molecule `CCc1cn(-c2nccs2)c2c1C(=O)CC(C)(C)C2`, the melting point is 58 to 60 °C.

In turn, `Cc1cc2c(CN3CCC(C)CC3)c(CO)c(Cl)nc2cc1Cl` had a melting point of 170 to 172 °C.

On to `CC1Nc2ccc(-c3ccc(C#N)n3C)cc2C(C)(C)O1` (stereo not given), for which the melting point is 195 to 196 °C.

`COc1cc(Nc2c(C#N)cnc3cc4cc(OC)c(OCCN5CCC(O)CC5)cc4cc23)c(Cl)cc1Cl` gave a melting point of 150 to 160 °C.

The molecule `O=C(O)C(O)=CC(=O)c1ccccc1` displayed a melting point of 155 to 158 °C.

Molecule `CCOC(=O)c1cc(CC)cnc1CNC(C)(C(N)=O)C(C)C` (stereo not given) yielded a melting point of 68 to 72 °C.

For the molecule `CN(C)Cc1cc([N+](=O)[O-])cc2c(Nc3cccc(Br)c3)c(C#N)cnc12`, the melting point is 223 to 226 °C.

`O=c1c2cc(F)c(N3CCCC3)cc2n(-c2ccc(F)cc2F)c(=O)n1O` came in with a melting point of 232 to 234 °C.

Consider `CC(C)(C)c1cc2c(c(C(C)(C)C)c1)OC(=O)C2c1ccc(OCCO)cc1` (stereo not given), for which the melting point is 132 to 135 °C.

Regarding `Nc1nc2cc(Br)ccc2c2c1nc(CNC(=O)C1CC1)n2CC1CCOCC1`, the melting point came to 240 °C.

Regarding `CCC(CC)CNC(=O)c1ccc2cccc(Cc3ccc(C(=O)OC)cc3OC)c2c1`, the melting point amounted to 130 °C.

Molecule `Cc1oncc1-c1cccc(OC2SCC(O)C(O)C2O)c1` (stereo not given) showed a melting point of 180 °C.

Consider `CC(C)(C)c1cc(C(=NNc2ccccc2)c2cccnc2Cl)cc(C(C)(C)C)c1O`, for which the melting point was determined as 181 °C.

For the molecule `Cc1cc(-c2sc(N3CCN(Cc4ccc(C(F)(F)F)cc4)C3=O)nc2C)n[nH]1`, the melting point is 238 to 239 °C.

In turn, `COc1cc(OC)cc(-c2nnc(-c3cc(OC)cc(OC)c3)o2)c1` had a melting point of 167 to 170 °C.

Take `CC(=O)c1cccc2c1C1(COc3cc4c(cc31)OCCO4)C(=O)N2C` (stereo not given): the melting point is 234 to 235 °C.

Regarding `Cc1nc2nc(-c3ccc(Cl)cc3)nn2c(=S)n1C`, the melting point was more than 300 °C.

On to `N#CCc1cc([N+](=O)[O-])c(F)cc1Cl`, for which the melting point lay within 67 to 68 °C.

`Cc1noc(NS(=O)(=O)c2ccccc2-c2ccc(-c3ncco3)cc2CN(C)C(=O)c2cc3ccccc3[nH]2)c1C`: the melting point is 135 to 145 °C.

Turning to `CC(=O)OC1CSC(Oc2cncc(-c3ccc(C(F)(F)F)cc3)c2)C(OC(C)=O)C1OC(C)=O` (stereo not given), the melting point is 163 to 164 °C.

Regarding `NC(=O)NC1CCN2CCc3ccccc3C2C1` (stereo not given), the melting point was found to be 235 °C.

Molecule `CCCCCCCCC(Oc1ccc(C(=O)CCCCCCC)cc1)C(=O)O` (racemic) registered a melting point of 45 to 47 °C.

For the origin of these results see a melting point compilation (Tetko et al.; mined from patent text by program, amines drawn as free bases though some values may be those of a salt).
